Measured values taken from US20240269303A1, “CELL TARGETING CONSTRUCTS AND USES THEREOF” (Research Development Foundation, priority 2022, published 2024).
Square brackets hold non-standard residues; d marks the D form. Peptide text beside a SMILES is read from it. * marks the point of attachment. Dolaproine = CO[C@@H]([C@@H]1CCCN1)[C@@H](C)C(=O)O; Dil = CC[C@H](C)[C@H](NC)[C@@H](CC(=O)O)OC; X1 = C[C@@H](N*)[C@@H](O)c1ccccc1; NMeV = CN[C@H](C(=O)O)C(C)C

What was measured:
HEK293/LGR5 cells = assay: Growth rate inhibition assay (CCK8, 120 h exposure); assay type: cell-based, human
OVCAR8/EV cells = assay: as above; assay type: cell-based, human; settings: OVCAR8/EV (LGR5-poor) cells
OVCAR8/LGR5 cells = assay: as above; assay type: cell-based, human
LGR5 = target: T1, LGR5 (Homo sapiens, UniProt O75473); settings: read-out: affinity; cited from earlier work
T1 sequence (O75473 22-907): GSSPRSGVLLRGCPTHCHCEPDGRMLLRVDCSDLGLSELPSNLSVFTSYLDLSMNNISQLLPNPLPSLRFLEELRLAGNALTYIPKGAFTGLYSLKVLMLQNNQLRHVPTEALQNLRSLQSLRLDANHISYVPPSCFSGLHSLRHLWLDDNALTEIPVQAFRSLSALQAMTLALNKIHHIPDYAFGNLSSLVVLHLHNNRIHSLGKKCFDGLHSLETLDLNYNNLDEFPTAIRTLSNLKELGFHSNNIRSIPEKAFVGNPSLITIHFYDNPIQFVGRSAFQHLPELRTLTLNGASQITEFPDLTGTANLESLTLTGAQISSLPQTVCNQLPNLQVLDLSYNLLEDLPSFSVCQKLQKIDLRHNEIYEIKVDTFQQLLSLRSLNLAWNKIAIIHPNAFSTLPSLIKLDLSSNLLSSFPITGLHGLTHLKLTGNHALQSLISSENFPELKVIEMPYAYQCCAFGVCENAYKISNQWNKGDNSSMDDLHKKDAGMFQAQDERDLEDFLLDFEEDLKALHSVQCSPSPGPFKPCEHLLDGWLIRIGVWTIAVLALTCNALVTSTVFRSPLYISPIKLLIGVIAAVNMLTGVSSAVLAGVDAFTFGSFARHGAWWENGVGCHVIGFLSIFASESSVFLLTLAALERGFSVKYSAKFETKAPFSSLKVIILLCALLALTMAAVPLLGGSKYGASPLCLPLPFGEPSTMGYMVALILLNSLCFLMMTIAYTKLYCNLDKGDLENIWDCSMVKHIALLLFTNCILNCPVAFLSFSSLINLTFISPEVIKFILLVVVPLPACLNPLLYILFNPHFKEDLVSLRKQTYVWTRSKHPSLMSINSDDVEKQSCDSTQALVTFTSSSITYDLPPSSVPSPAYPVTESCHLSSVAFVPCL

LGR6 = target: T2, LGR6 (Homo sapiens, UniProt Q9HBX8); settings: read-out: affinity; cited from earlier work
T2 sequence (Q9HBX8 25-967): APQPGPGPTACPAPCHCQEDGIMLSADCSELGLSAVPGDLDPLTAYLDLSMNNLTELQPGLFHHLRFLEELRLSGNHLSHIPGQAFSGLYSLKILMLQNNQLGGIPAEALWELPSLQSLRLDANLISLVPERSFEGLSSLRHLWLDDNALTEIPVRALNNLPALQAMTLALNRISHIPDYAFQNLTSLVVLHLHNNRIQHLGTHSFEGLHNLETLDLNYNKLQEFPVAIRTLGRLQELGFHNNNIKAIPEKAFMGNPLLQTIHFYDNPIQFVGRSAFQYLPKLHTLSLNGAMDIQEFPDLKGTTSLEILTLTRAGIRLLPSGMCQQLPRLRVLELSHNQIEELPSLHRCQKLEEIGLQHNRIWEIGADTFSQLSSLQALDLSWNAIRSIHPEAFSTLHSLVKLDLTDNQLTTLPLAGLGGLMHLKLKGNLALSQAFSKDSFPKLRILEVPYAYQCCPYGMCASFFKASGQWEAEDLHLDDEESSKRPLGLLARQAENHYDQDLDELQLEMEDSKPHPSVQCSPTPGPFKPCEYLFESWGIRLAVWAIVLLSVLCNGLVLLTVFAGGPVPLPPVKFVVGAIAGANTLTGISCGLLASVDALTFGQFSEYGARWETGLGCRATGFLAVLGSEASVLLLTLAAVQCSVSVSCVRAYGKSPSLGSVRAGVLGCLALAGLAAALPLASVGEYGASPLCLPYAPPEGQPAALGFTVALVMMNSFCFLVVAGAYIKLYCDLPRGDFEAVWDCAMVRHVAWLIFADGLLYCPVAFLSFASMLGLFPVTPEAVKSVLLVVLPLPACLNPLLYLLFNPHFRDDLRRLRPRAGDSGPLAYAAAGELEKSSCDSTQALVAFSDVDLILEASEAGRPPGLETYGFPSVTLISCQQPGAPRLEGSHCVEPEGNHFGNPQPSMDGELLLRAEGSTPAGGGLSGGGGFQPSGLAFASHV

Molecule | HEK293/LGR5 cells more resistant than HEK293/EV cells (HEK293/LGR5 cells) | IC50 (OVCAR8/EV cells) | OVCAR8/LGR5 cells more resistant than OVCAR8/EV cells (OVCAR8/LGR5 cells) | IC50 (OVCAR8/LGR5 cells; OVCAR8/LGR5 (LGR5-rich) cells, 120 h exposure, CCK8) | Kd (LGR5) | Kd (LGR6)
CC[C@H](C)[C@@H]([C@@H](CC(=O)N1CCC[C@H]1[C@H](OC)[C@@H](C)C(=O)N[C@H](C)[C@@H](O)c1ccccc1)OC)N(C)C(=O)[C@@H](NC(=O)[C@@H](NC)C(C)C)C(C)C [free MMAE, Monomethyl auristatin E, reference compound] (H-[NMeV]V[Dil][Dolaproine]-X1) | 1.6 fold | 85 nM | 1.5 fold | 129 nM | – | –
Fu1-Fu2 domain of RSPO1: receptor-binding Fu1-Fu2 domain of human RSPO1 | – | – | – | – | ~3 nM | ~3 nM
